Experimental data as given in US4385112A (priority 1980, dated 1983).

What was measured:
Type in all cases: biochemical, Pseudomonas putida B-0781
[1] = test system: nucleoside oxidase; assay: Substrate specificity: relative enzymatic activity on various substrates; settings: substrate each 1 mM concentration
Procedure: Relative enzymatic activities on various substrates (nucleoside, nucleic acid base, sugar, and nucleotide, each 1 mM concentration) shown in Table 1 were measured.
A reaction mixture (0.5 ml) consisting of 0.2 M dimethylglutarate-NaOH buffer (pH 6.0) 0.2 ml, 0.2 w/w% N,N-diethyl-m-toluidine 0.05 ml, 0.3 w/w% 4-aminoantipyrine 0.05 ml, 10 mM adenosine 0.05 ml and distilled water 0.10 ml was pre-incubated at 37° C. for 3 minutes. After adding enzyme solution (20 μl), the mixture was incubated at 37° C. for 10 minutes, and 0.5 ml of 4 M urea solution containing 0.2% cetylpyridiniumchloride was added to stop the reaction. […] Then the enzyme solution was replaced by distilled water (20 μl) as a control (AB).
(§1) Enzymatic activity should be measured within the value of As below 0.15.
One unit (1 U.) of enzyme activity is that amount of enzyme such that 1μ mole of hydrogen peroxide is generated in one minute at 37° C. with adenosine as substrate, and represented by the following equation: […]

[2] = test system: nucleoside oxidase; assay: Effect of metal ions on enzyme activity (Table 2); set-up: concentration or dose not given beside the values; settings: control 100; 10 min
Procedure: as §1
(§2) One unit (1 U.) of enzyme activity is that amount of enzyme such that 1μ mole of hydrogen peroxide is generated in one minute at 37° C. with adenosine as substrate, and represented by the following equation:
(§3) Enzyme activity (U/ml)=1.25×(As-AB)×dilution ratio.

[3] = test system: nucleoside oxidase; assay: Km value of the enzyme; settings: for adenosine
Procedure: as §1, §2, §3

[4] = test system: nucleoside oxidase; assay: Amount of oxygen consumption and hydrogen peroxide generation in the reaction
Procedure: The amount of consumed oxygen (measured by an oxygen electrode) and generated hydrogen peroxide (colorimetric assay at 545 nm) were measured. Results: adenosine 0.05μ mole; consumed oxygen 0.097μ mole; and generated hydrogen peroxide 0.101μ mole.

[5] = test system: nucleoside oxidase; assay: Effect of surface active agent on enzyme activity (Table 3); settings: 0.1 w/w % surface active agent; None 100
Procedure: as §1, §2, §3

Q: Which Relative activity [1] does the source give for O=c1ccn([C@@H]2O[C@H](CO)[C@@H](O)[C@H]2O)c(=O)[nH]1 [uridine] here?
A: 94.3%

Q: For [Mg+2] [Mg^2++], which Relative activity [2] is on record?
A: 104%

Q: With Nc1nc2c(ncn2[C@@H]2O[C@H](CO)[C@@H](O)[C@H]2O)c(=O)[nH]1 [guanosine] as the compound, how does the Relative activity [1] read?
A: 97.1%

Q: Which Relative activity [1] does the source give for Nc1ncnc2c1ncn2[C@@H]1O[C@H](CO)[C@@H](O)[C@H]1O [adenosine] here?
A: 100%

Q: And the Km [3]?
A: 45 µM

Q: What about the “moles of hydrogen peroxide generated per 1 mole of adenosine” value [4] of the same compound?
A: 2 mol

Q: And the “moles of oxygen consumed per 1 mole of adenosine” value [4]?
A: 2 mol

Q: And the generated hydrogen peroxide ([4]; adenosine 0.05 μ mole, nucleoside oxidase 3 U., colorimetric assay at 545 nm)?
A: 0.101 μ mole

Q: What about the consumed oxygen ([4]; adenosine 0.05 μ mole, nucleoside oxidase 3 U., oxygen electrode) of the same compound?
A: 0.097 μ mole

Q: With O=c1[nH]c(=O)c2ncn([C@@H]3O[C@H](CO)[C@@H](O)[C@H]3O)c2[nH]1 [xanthosine] as the compound, how does the Relative activity [1] read?
A: 14.3%

Q: Which Relative activity [1] does the source give for O=c1[nH]cnc2nc[nH]c12 [hypoxanthine] here?
A: 0%

Q: Which Relative activity [2] does the source give for [Ba+2] [Ba^2+] here?
A: 100%

Q: [Zn+2] [Zn^2+] was tested. Which Relative activity [2] did it give?
A: 94%

Q: Which Relative activity [1] does the source give for O=C[C@H](O)[C@H](O)[C@H](O)CO [D-ribose] here?
A: 0%

Q: Which Relative activity [1] does the source give for NC(=O)c1ncn([C@@H]2O[C@H](CO)[C@@H](O)[C@H]2O)c1O [bredinine, 4-carbamoyl-1-D-ribofuranosylimidazolium-5-olate, reference compound] here?
A: 48.2%

Q: With OC[C@H]1O[C@@H](n2cnc3c(O)ncnc32)[C@H](O)[C@@H]1O [inosine] as the compound, how does the Relative activity [1] read?
A: 91.4%

Q: Nc1ncnc2c1ncn2[C@@H]1O[C@H](COP(=O)(O)O)[C@@H](O)[C@H]1O [5'-AMP] was tested. Which Relative activity [1] did it give?
A: 0%

Q: For [Co+2] [Co^2+], which Relative activity [2] is on record?
A: 104%

Q: For O=C(O)CN(CCN(CC(=O)O)CC(=O)O)CC(=O)O [EDTA, reference compound], which Relative activity [2] is on record?
A: 98%

Q: With Nc1ccn([C@@H]2O[C@H](CO)[C@@H](O)[C@@H]2O)c(=O)n1 [arabinosylcytosine, 1-β-D-arabinofuranosylcytosine, reference compound] as the compound, how does the Relative activity [1] read?
A: 8.1%

Q: With O=c1[nH]c(=O)c2ncn([C@@H]3O[C@H](COP(=O)(O)O)[C@@H](O)[C@H]3O)c2[nH]1 [5'-XMP] as the compound, how does the Relative activity [1] read?
A: 0%

Q: Which Relative activity [1] does the source give for Nc1ncnc2c1ncn2[C@H]1C[C@H](O)[C@@H](CO)O1 [2'-deoxyadenosine] here?
A: 99.1%

Q: CCCCCCCCCCCCOS(=O)(=O)[O-].[Na+] [sodium dodecyl sulfate] was tested. Which Relative activity [5] did it give?
A: 66%

Q: Which Relative activity [2] does the source give for [Ca+2] [Ca^2+] here?
A: 102%

Q: With Nc1ncnc2nc[nH]c12 [adenine] as the compound, how does the Relative activity [1] read?
A: 0%

Q: How did the Relative activity [1] turn out when Nc1ncnc2c1ncn2[C@@H]1O[C@H](COP(=O)(O)OP(=O)(O)O)[C@@H](O)[C@H]1O [5'-ADP] was run?
A: 0%

Q: How did the Relative activity [1] turn out when Nc1ccn([C@@H]2O[C@H](COP(=O)(O)O)[C@@H](O)[C@H]2O)c(=O)n1 [5'-CMP] was run?
A: 0%

Q: How did the Relative activity [1] turn out when Nc1ncnc2c1ncn2[C@@H]1O[C@H](COP(=O)(O)OP(=O)(O)OP(=O)(O)O)[C@@H](O)[C@H]1O [5'-ATP] was run?
A: 0%

Q: For Cc1c[nH]c(=O)[nH]c1=O [thymine], which Relative activity [1] is on record?
A: 0%

Q: Which Relative activity [1] does the source give for Nc1ncnc2c1ncn2[C@@H]1O[C@H](CO)[C@@H](O)[C@@H]1O [arabinosyladenine, reference compound] here?
A: 67.2%

Q: CCCCCCCCCCCCCCCC[N+](C)(C)C.[Cl-] [cetyl trimethylammonium chloride] was tested. Which Relative activity [5] did it give?
A: 78%

Q: How did the Relative activity [1] turn out when Nc1nc2c(ncn2[C@@H]2O[C@H](COP(=O)(O)O)[C@@H](O)[C@H]2O)c(=O)[nH]1 [5'-GMP] was run?
A: 0%

Q: For Cc1cn([C@H]2C[C@H](O)[C@@H](CO)O2)c(=O)[nH]c1=O [thymidine], which Relative activity [1] is on record?
A: 94.3%

Q: For sodium lauryl benzene sulfonate, which Relative activity [5] is on record?
A: 38%

Q: For Nc1ccn([C@@H]2O[C@H](CO)[C@@H](O)[C@H]2O)c(=O)n1 [cytidine], which Relative activity [1] is on record?
A: 65.7%

Q: Which Relative activity [1] does the source give for O=c1[nH]c(=O)c2[nH]cnc2[nH]1 [xanthine] here?
A: 0%

Q: O=P(O)(O)O[C@H]1O[C@H](CO)[C@@H](O)[C@H]1O [α-D-ribose-1-phosphate] was tested. Which Relative activity [1] did it give?
A: 0%

Q: O=c1cc[nH]c(=O)[nH]1 [uracil] was tested. Which Relative activity [1] did it give?
A: 0%

Q: Which Relative activity [2] does the source give for [Mn+2] [Mn^2+] here?
A: 110%

Q: With O=C(O)c1cc[c]([Hg][Cl])cc1 [PCMB, reference compound] as the compound, how does the Relative activity [2] read?
A: 102%

Q: Which Relative activity [5] does the source give for Triton X-100 here?
A: 104%

Q: Which Relative activity [1] does the source give for O=c1ccn([C@@H]2O[C@H](COP(=O)(O)O)[C@@H](O)[C@H]2O)c(=O)[nH]1 [5'-UMP] here?
A: 0%

Q: How did the Relative activity [5] turn out when C[C@H](CCC(=O)O)[C@H]1CC[C@H]2[C@@H]3CC[C@@H]4C[C@H](O)CC[C@]4(C)[C@H]3C[C@H](O)[C@]12C [sodium deoxycholate] was run?
A: 102%
